Structures can show the parent of a compound that is named as a salt. Where two headings read alike, the source gives them in different places.
Tests used:
[1] = system: NCI-H292 lung cancer cells; assay: FDA drug screening, complete media vs cholesterol-free media without statin (TABLE 1); assay type: cell-based, human
[2] = system: NCI-H292 lung cancer cells; assay: FDA drug screening, complete media vs cholesterol-free media with simvastatin (TABLE 2); assay type: cell-based, human
[3] = NCI-H292 cells, cholesterol-free media without statin, FDA drug library screen
[4] = NCI-H292 cells, complete media, FDA drug library screen
[5] = complete vs cholesterol-free media, >0 enhanced anti-cancer activity, about 0 neutral, <0 antagonist
[6] = NCI-H292 cells, cholesterol-free media with simvastatin 0.04 μM, FDA drug library screen (TABLE 2)
[7] = NCI-H292 cells, complete media, FDA drug library screen (TABLE 2)
[8] = complete media minus cholesterol-free media + simvastatin (0.04 μM), >0 enhanced anti-cancer activity, about 0 neutral, <0 antagonist
[9] = NCI-H292 cells, cholesterol-free media without statin
[10] = complete vs cholesterol-free media, greater than 0 enhanced anti-cancer activity, about 0 neutral, below 0 antagonists
[11] = NCI-H292 cells, FDA library drug in cholesterol-free media with simvastatin 0.04 μM
[12] = NCI-H292 cells, FDA library drug in complete media
[13] = complete media vs cholesterol-free media + simvastatin (0.04 μM), >0 enhanced anti-cancer activity, about 0 neutral, <0 antagonist
[14] = NCI-H292 cells, drug in cholesterol-free media with simvastatin 0.04 μM
[15] = NCI-H292 cells, drug in complete media
[16] = Complete minus Cholesterol-free, greater than 0 enhanced anti-cancer activity, about 0 neutral, below 0 antagonist
[17] = NCI-H292 cells, FDA drug library screen, cholesterol-free media without statin
[18] = NCI-H292 cells, FDA drug library screen, complete media
[19] = NCI-H292 cells, FDA drug library screen, cholesterol-free media with simvastatin 0.04 μM
[20] = Complete minus Cholesterol-free, >0 enhanced anti-cancer activity, about 0 neutral, <0 antagonist
[21] = complete media minus cholesterol-free media + simvastatin, >0 enhanced anti-cancer activity, about 0 neutral, <0 antagonist
[22] = Complete minus Cholesterol-free, greater than 0 enhanced anti-cancer activity, about 0 neutral, below 0 antagonists
[23] = NCI-H292 cells in cholesterol-free media without statin
[24] = NCI-H292 cells in complete media

CN1CCN(CC(=O)N2c3ccccc3C(=O)Nc3cccnc32)CC1 [Pirenzepine (dihydrochloride)]
Cholesterol-free [1, 3]: 1.465 | Complete [1, 4]: 1.606 | Difference [1, 5]: 0.14 | Cholesterol-free media + simvastatin (0.04 μM) [2, 6]: 1.293 | Complete Media [2, 7]: 1.265 | Difference [2, 8]: −0.03

Cc1ccc(=O)n(-c2ccccc2)c1 [Pirfenidone]
Cholesterol-free [1, 9]: 1.328 | Complete ([1]; NCI-H292 cells, complete media): 0.9771 | Difference [1, 10]: −0.35 | Cholesterol-free media + simvastatin (0.04 μM) [2, 11]: 1.397 | Complete Media [2, 12]: 1.068 | Difference [2, 13]: −0.33

c1cnc(N2CCN(Cc3ccc4c(c3)OCO4)CC2)nc1 [Piribedil]
Cholesterol-free [1, 3]: 0.8521 | Complete [1, 4]: 1.367 | Difference [1, 5]: 0.51 | Cholesterol-free media + simvastatin (0.04 μM) [2, 14]: 1.189 | Complete Media [2, 15]: 0.9878 | Difference [2, 13]: −0.20

CC1CCCC(C)N1CCCC(O)(c1ccccc1)c1ccccn1 (stereo not drawn) [Pirmenol (hydrochloride)]
Difference [1, 16]: −0.15 | Cholesterol-free [1, 17]: 0.8727 | Complete [1, 18]: 0.7238 | Cholesterol-free media + simvastatin (0.04 μM) [2, 19]: 1.664 | Complete Media [2, 18]: 1.547 | Difference [2, 13]: −0.12

Cc1cc(CC(C)CC(C)(C)C)n(O)c(=O)c1.NCCO (stereo not drawn) [Piroctone olamine]
Difference [1, 20]: −0.05 | Cholesterol-free [1, 3]: 0.04765 | Complete [1, 4]: 0.0002612 | Cholesterol-free media + simvastatin (0.04 μM) ([2]; NCI-H292 cells, cholesterol-free media with simvastatin 0.04 μM, cell growth value in FDA drug screen): 0 | Complete Media ([2]; NCI-H292 cells, complete media, cell growth value in FDA drug screen): 0.02737 | Difference [2, 21]: 0.03

CN1C(C(=O)Nc2ccccn2)=C(O)c2ccccc2S1(=O)=O [Piroxicam]
Difference [1, 22]: −0.71 | Cholesterol-free [1, 23]: 1.552 | Complete [1, 24]: 0.8427 | Cholesterol-free media + simvastatin (0.04 μM) [2, 11]: 1.433 | Complete Media [2, 12]: 1.008 | Difference [2, 13]: −0.42

O=C(O)C[C@H](O)C[C@H](O)/C=C/c1c(C2CC2)nc2ccccc2c1-c1ccc(F)cc1 [Pitavastatin (Calcium)]
Difference [1, 16]: −0.07 | Cholesterol-free [1, 17]: 0.4408 | Complete [1, 18]: 0.3693 | Cholesterol-free media + simvastatin (0.04 μM) [2, 6]: 0.4883 | Complete Media [2, 7]: 0.4437 | Difference [2, 8]: −0.04

Clc1ccc(CCCOCCCN2CCCCC2)cc1 [Pitolisant (hydrochloride)]
Cholesterol-free [1, 3]: 0.9791 | Complete [1, 4]: 1.232 | Difference [1, 5]: 0.25 | Cholesterol-free media + simvastatin (0.04 μM) [2, 19]: 0.442 | Complete Media [2, 18]: 1.031 | Difference [2, 21]: 0.59

CC(C)(C)C(=O)OCOC(=O)[C@@H]1N2C(=O)[C@@H](/N=C/N3CCCCCC3)[C@H]2SC1(C)C [Pivmecillinam (hydrochloride)]
Difference [1, 22]: −0.49 | Cholesterol-free [1, 23]: 1.646 | Complete [1, 24]: 1.161 | Cholesterol-free media + simvastatin (0.04 μM) [2, 14]: 1.219 | Complete Media [2, 15]: 1.044 | Difference [2, 13]: −0.18

CN1CCC(=C2c3ccccc3CCc3sccc32)CC1 [Pizotifen]
Cholesterol-free [1, 9]: 1.127 | Complete ([1]; NCI-H292 cells, complete media): 0.7811 | Difference [1, 10]: −0.35 | Cholesterol-free media + simvastatin (0.04 μM) [2, 19]: 0.849 | Complete Media [2, 18]: 1.216 | Difference [2, 21]: 0.37

c1cc(CN2CCCNCCNCCCNCC2)ccc1CN1CCCNCCNCCCNCC1 [Plerixafor (octahydrochloride)]
Difference [1, 16]: −0.08 | Cholesterol-free [1, 17]: 1.221 | Complete [1, 18]: 1.137 | Cholesterol-free media + simvastatin (0.04 μM) [2, 11]: 1.159 | Complete Media [2, 12]: 0.812 | Difference [2, 13]: −0.35

c1cc(CN2CCCNCCNCCCNCC2)ccc1CN1CCCNCCNCCCNCC1 [Plerixafor]
Cholesterol-free [1, 9]: 1.296 | Complete ([1]; NCI-H292 cells, complete media): 0.935 | Difference [1, 10]: −0.36 | Cholesterol-free media + simvastatin (0.04 μM) [2, 19]: 1.17 | Complete Media [2, 18]: 1.011 | Difference [2, 13]: −0.16

COc1cc([C@@H]2c3cc4c(cc3[C@H](O)[C@H]3COC(=O)[C@H]23)OCO4)cc(OC)c1OC [Podofilox]
Difference ([1]; Complete minus Cholesterol-free, […]): −0.01 | Cholesterol-free [1, 3]: 0.05355 | Complete [1, 4]: 0.04847 | Cholesterol-free media + simvastatin (0.04 μM) [2, 6]: 0.1667 | Complete Media [2, 7]: 0.1215 | Difference ([2]; complete media minus cholesterol-free media + simvastatin (0.04 μM), […]): −0.05

Nc1cccc2c1C(=O)N(C1CCC(=O)NC1=O)C2=O (stereo not drawn) [Pomalidomide]
Difference [1, 20]: −0.27 | Cholesterol-free [1, 9]: 1.37 | Complete ([1]; NCI-H292 cells, complete media): 1.095 | Cholesterol-free media + simvastatin (0.04 μM) [2, 6]: 1.093 | Complete Media [2, 7]: 1.03 | Difference [2, 8]: −0.06

Cc1ccc(C(=O)Nc2ccc(CN3CCN(C)CC3)c(C(F)(F)F)c2)cc1C#Cc1cnc2cccnn12 [Ponatinib]
Cholesterol-free [1]: 0.1141 | Complete [1]: 0.07529 | Difference [1]: −0.04 | Cholesterol-free media + simvastatin (0.04 μM) [2]: 0.4683 | Complete Media [2]: 0.4064 | Difference [2]: −0.06

From patent publication US20250144067A1, “PERSONALIZED STARVATION THERAPY FOR CANCER” (Faeth Therapeutics, Inc., priority 2021, published 2025)
